Experimental data: patent US9139557B2, “Carboxamide compounds and their use as calpain inhibitors” (Abbott GmbH & Co. KG, priority 2006, dated 2015)

Columns and labels:
Type in all cases: biochemical
cathepsin K = biological target: T1, cathepsin K (Homo sapiens, UniProt P43235); assay: Cathepsin K enzyme inhibition in vitro (kinetic fluorescence assay); details: Ki(cathepsin K)/Ki(calpain) ratio
T1 construct: purchased Calbiochem 342001; host or cells: E. coli
T1 sequence (P43235 115-329): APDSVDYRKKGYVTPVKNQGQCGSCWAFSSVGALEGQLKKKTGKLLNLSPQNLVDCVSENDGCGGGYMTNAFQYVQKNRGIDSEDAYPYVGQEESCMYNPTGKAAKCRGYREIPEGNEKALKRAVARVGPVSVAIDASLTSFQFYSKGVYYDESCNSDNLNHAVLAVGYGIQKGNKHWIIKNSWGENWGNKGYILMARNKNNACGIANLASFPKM

cathepsin S = biological target: T2, cathepsin S (Homo sapiens, UniProt P25774); assay: Cathepsin S enzyme inhibition in vitro (kinetic fluorescence assay); details: Ki(cathepsin S)/Ki(calpain) ratio
T2 construct: purchased Calbiochem 219343; host or cells: E. coli
Method in brief: (§1)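 Kinetic fluorescence (ex 390/em 460 nm), RT. Calpain-I: 20 nM erythrocyte-derived, 100 μM Suc-Leu-Tyr-AMC, imidazole/CaCl2, pH 7.3. Cathepsins, pH 6.0 MES/EDTA/cysteine: B 0.25 nM liver, 100 μM Z-Phe-Arg-AMC; L 1 nM liver, 2 μM Z-Phe-Arg-AMC; S 0.5 nM recombinant, 20 μM Z-Val-Val-Arg-AMC. Cheng-Prusoff Ki, mean of 2–4 curves.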

cathepsin B = biological target: T3, cathepsin B (Homo sapiens, UniProt P07858); assay: Cathepsin B enzyme inhibition in vitro (kinetic fluorescence assay); details: Ki(cathepsin B)/Ki(calpain) ratio
T3 construct: cathepsin B—isolated from human liver; purchased Calbiochem 219362; host or cells: human liver (tissue isolate)
Method in brief: as §1

cathepsin L = biological target: T4, cathepsin L (Homo sapiens, UniProt P07711); assay: Cathepsin L enzyme inhibition in vitro (kinetic fluorescence assay); details: Ki(cathepsin L)/Ki(calpain) ratio
T4 construct: cathepsin L—isolated from human liver; purchased Calbiochem 219402; host or cells: human liver (tissue isolate)
Method in brief: as §1

T4 sequence (P07711 114-333): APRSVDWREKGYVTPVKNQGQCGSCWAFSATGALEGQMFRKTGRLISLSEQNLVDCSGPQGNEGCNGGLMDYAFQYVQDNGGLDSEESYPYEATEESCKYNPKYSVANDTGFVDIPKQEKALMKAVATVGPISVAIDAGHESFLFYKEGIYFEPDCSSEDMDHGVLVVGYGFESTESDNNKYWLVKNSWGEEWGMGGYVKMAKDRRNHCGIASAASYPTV
T2 sequence (P25774 115-331): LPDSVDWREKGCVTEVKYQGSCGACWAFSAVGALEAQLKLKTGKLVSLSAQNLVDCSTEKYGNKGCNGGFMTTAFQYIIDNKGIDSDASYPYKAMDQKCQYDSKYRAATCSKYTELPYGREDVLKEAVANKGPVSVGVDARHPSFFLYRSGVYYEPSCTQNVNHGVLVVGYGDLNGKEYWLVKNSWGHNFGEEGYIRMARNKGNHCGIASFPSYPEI

Row | SMILES | Sel cat. K (cathepsin K) | Sel cat. S (cathepsin S) | Sel cat. B (cathepsin B) | Sel cat. L (cathepsin L)
1 | COc1ccc2c(c1)-c1nn(-c3ncccc3C(=O)NC(Cc3ccccc3)C(=O)C(N)=O)cc1CO2 (stereo not shown) [Example 183, N-[3-Amino-2,3-dioxo-1-(phenylmethyl)propyl]-2-[8-(methyloxy)chromeno[4,3-c]pyrazol-2(4H)-yl]pyridine-3-carboxamide] | + (+ means 10≦Ki(cathepsin K)/Ki(calpain)<30) | ++ (++ means a Ki(cathepsin S)/Ki(calpain) ratio of ≧100) | + (+ means 10≦Ki(cathepsin B)/Ki(calpain)<30) | ++ (++ means a Ki(cathepsin L)/Ki(calpain) ratio of ≧50)
2 | NC(=O)C(=O)C(Cc1ccccc1)NC(=O)c1cccnc1-n1ccc(-c2ccc(N3CCOCC3)cc2F)n1 (stereo not shown) [Example 102, N-[3-Amino-2,3-dioxo-1-(phenylmethyl)propyl]-2-[3-(2-fluoro-4-morpholin-4-ylphenyl)-1H-pyrazol-1-yl]pyridine-3-carboxamide] | ++ (++ means a Ki(cathepsin K)/Ki(calpain) ratio of ≧30) | ++ (++ means a Ki(cathepsin S)/Ki(calpain) ratio of ≧100) | + (+ means 10≦Ki(cathepsin B)/Ki(calpain)<30) | ++ (++ means a Ki(cathepsin L)/Ki(calpain) ratio of ≧50)
3 | NC(=O)C(=O)C(Cc1ccccc1)NC(=O)c1cccnc1-n1ccc(-c2c(F)cccc2F)n1 (stereo not shown) [Example 85, N-[3-Amino-2,3-dioxo-1-(phenylmethyl)propyl]-2-[3-(2,6-difluorophenyl)-1H-pyrazol-1-yl]pyridine-3-carboxamide] | ++ (++ means a Ki(cathepsin K)/Ki(calpain) ratio of ≧30) | ++ (++ means a Ki(cathepsin S)/Ki(calpain) ratio of ≧100) | + (+ means 10≦Ki(cathepsin B)/Ki(calpain)<30) | ++ (++ means a Ki(cathepsin L)/Ki(calpain) ratio of ≧50)
4 | NC(=O)C(=O)C(Cc1ccc(OC(F)(F)F)cc1)NC(=O)c1cccnc1-n1ccc(-c2ccccc2)n1 (stereo not shown) [Example 133] | ++ (++ means a Ki(cathepsin K)/Ki(calpain) ratio of ≧30) | ++ (++ means a Ki(cathepsin S)/Ki(calpain) ratio of ≧100) | ++ (++ means a Ki(cathepsin B)/Ki(calpain) ratio of ≧30) | ++ (++ means a Ki(cathepsin L)/Ki(calpain) ratio of ≧50)
5 | NC(=O)C(=O)C(Cc1ccccc1)NC(=O)c1cccnc1-n1ccc(-c2ccc(F)cc2F)n1 (stereo not shown) [Example 94, N-[3-Amino-2,3-dioxo-1-(phenylmethyl)propyl]-2-[3-(2,4-difluorophenyl)-1H-pyrazol-1-yl]pyridine-3-carboxamide] | + (+ means 10≦Ki(cathepsin K)/Ki(calpain)<30) | ++ (++ means a Ki(cathepsin S)/Ki(calpain) ratio of ≧100) | ++ (++ means a Ki(cathepsin B)/Ki(calpain) ratio of ≧30) | ++ (++ means a Ki(cathepsin L)/Ki(calpain) ratio of ≧50)
6 | NC(=O)C(=O)C(Cc1ccccc1)NC(=O)c1cccnc1-n1ccc(-c2c(F)ccc(Cl)c2Cl)n1 (stereo not shown) [Example 120, N-[3-Amino-2,3-dioxo-1-(phenylmethyl)propyl]-2-[3-(2,3-dichloro-6-fluorophenyl)-1H-pyrazol-1-yl]pyridine-3-carboxamide] | ++ (++ means a Ki(cathepsin K)/Ki(calpain) ratio of ≧30) | ++ (++ means a Ki(cathepsin S)/Ki(calpain) ratio of ≧100) | ++ (++ means a Ki(cathepsin B)/Ki(calpain) ratio of ≧30) | + (+ means 30≦Ki(cathepsin L)/Ki(calpain)<50)
7 | NC(=O)C(=O)C(Cc1ccc(Cl)cc1)NC(=O)c1cccnc1-n1ccc(-c2ccccc2)n1 (stereo not shown) [Example 50, N-[3-Amino-1-(4-chlorobenzyl)-2,3-dioxopropyl]-2-(3-phenyl-1H-pyrazol-1-yl)nicotinamide] | + (+ means 10≦Ki(cathepsin K)/Ki(calpain)<30) | + (+ means 50≦Ki(cathepsin S)/Ki(calpain)<100) | + (+ means 10≦Ki(cathepsin B)/Ki(calpain)<30) | + (+ means 30≦Ki(cathepsin L)/Ki(calpain)<50)
